The nature of data set [1]: Measurement of singlet oxygen generated by naphthalene endoperoxide EP-1 (fluorescence). On the procedure: Singlet oxygen was generated continuously with time under a neutral condition at 37° C. in given amounts by using a naphthalene endoperoxide compound EP-1 (Saito, I, et al., J. Am. Chem. Soc., 107, pp. 6329-6334, 1985) as a singlet oxygen generation system. Fluorescence was measured in the presence of DMAX and DPAX-1 [100 mM phosphate buffer (pH 7.4), DMSO (0.1%)].

Data set [2] can be described thus: Light stability (photobleaching) of the endoperoxide under continuous excitation light. It is filed as physicochemical. The conditions noted are these: 5.0 μM aqueous solution, 0.1 M phosphate buffer (pH 7.4), 0.1% DMSO, excitation light 491 nm, 37° C., fluorescence at 520 nm. On the procedure:
5.0 μM aqueous solutions of DMAX-EP (endoperoxide of Compound 11 in the above scheme) and DPAX-1-EP (endoperoxide of Compound 13 described in International Patent Publication WO99/51586, Example 1) [0.1 M phosphate buffer (pH 7.4) containing 0.1% DMSO as a cosolvent]were each placed in a fluorescent cell and exposed to an excitation light of 491 nm at 37° C. with stirring, and fluorescence was measured at 520 nm by using a fluorometer while the solution was continuously exposed to the excitation light.

Molecules are shown by their SMILES.

Turning to `Cc1c2ccccc2c(C)c2cc(-c3c4ccc(=O)cc-4oc4cc(O)ccc34)c(C(=O)O)cc12` [DMAX], the “Increase of fluorescence intensity with 0.5 mM EP-1 compared with 10 mM EP-1 in the presence of DPAX-1” value in data set [1] (100 mM phosphate buffer (pH 7.4), DMSO (0.1%), 37° C.) is reported as “far larger”. For the same compound, the “Fluorescence intensity on generation of singlet oxygen” value in data set [1] (EP-1 increased from 0.1 mM to 0.5 mM and to 1.0 mM, 100 mM phosphate buffer (pH 7.4), DMSO (0.1%), 37° C.) was “increase of fluorescence intensity dependent on the generated amount of singlet oxygen”. In addition, the “Sensitivity for singlet oxygen compared with DPAX-1” value in data set [1] (EP-1 singlet oxygen generation system, pH 7.4, 37° C.) is listed as “much higher sensitivity”.
Turning to `CC12OOC(C)(c3ccccc31)c1cc(-c3c4ccc(=O)cc-4oc4cc(O)ccc34)c(C(=O)O)cc12` (stereo not shown) [DMAX-EP], the “Photobleaching, times slower than that of DPAX-1-EP” value in data set [2] is 54 times.

For the origin of these results see patent US20050123478A1, “Agent for measurement of singlet oxygen” (Daiichi Pure Chemicals Co., Ltd, priority 2000, published 2005).
